Measurements taken from patent publication US11702404B2, “GLP-1R modulating compounds” (priority 2019, dated 2023).
Read-outs that look alike come from different tables or passages of the source.

Experiments:
GLP-1R = GLP-1R (Homo sapiens, UniProt P43220); assay: GLP-1R activation: cAMP increase in CHO cells stably expressing GLP-1R; format: cell-based
[1] = Microsomal stability, human liver microsomes (predicted hepatic clearance); conditions: predicted from in vitro microsomal stability data
[2] = cAMP increase, CHO cells stably expressing GLP-1R, 10 point dose response, 30 minutes incubation, read-out: EC50

GLP-1R, sequence (P43220 24-463): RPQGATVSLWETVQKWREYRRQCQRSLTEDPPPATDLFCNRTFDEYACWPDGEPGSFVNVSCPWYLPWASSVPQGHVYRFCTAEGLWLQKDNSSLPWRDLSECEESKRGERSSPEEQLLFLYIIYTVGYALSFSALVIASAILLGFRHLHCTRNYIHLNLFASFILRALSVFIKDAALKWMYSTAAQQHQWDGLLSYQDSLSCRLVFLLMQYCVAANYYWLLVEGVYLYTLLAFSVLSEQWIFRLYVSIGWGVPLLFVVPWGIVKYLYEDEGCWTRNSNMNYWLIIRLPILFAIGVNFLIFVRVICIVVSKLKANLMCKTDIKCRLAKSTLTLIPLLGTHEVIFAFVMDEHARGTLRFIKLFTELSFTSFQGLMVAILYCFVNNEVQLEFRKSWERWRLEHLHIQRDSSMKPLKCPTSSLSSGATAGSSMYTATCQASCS

Structure (SMILES) | EC50 (GLP-1R; read-out: EC50) [nM] | Predicted Hepatic Clearance (Pred. Cl.) [1] [mL/min/kg] | EC50 (GLP-1R; [2]) [nM] | EC50 (GLP-1R; EC50 (nM)) [nM]
CC(=O)N1CCC[C@@H]1Cn1c(Cc2cc(F)c(-c3cccc(OCc4ccc(C#N)cc4F)n3)cc2F)nc2ccc(C(=O)O)cc21 [Example 591, (R)-1-((1-acetylpyrrolidin-2-yl)methyl)-2-(4-(6-((4-cyano-2-fluorobenzyl)oxy)pyridin-2-yl)-2,5-difluorobenzyl)-1H-benzo[d]imidazole-6-carboxylic acid] | 0.17 | 7 |  | 
COCCn1c(Cc2ccc(-c3cccc(OCc4ncc(Cl)s4)n3)cc2F)nc2ccc(C(=O)O)cc21 [Example 592, 2-(4-(6-((5-chlorothiazol-2-yl)methoxy)pyridin-2-yl)-2-fluorobenzyl)-1-(2-methoxyethyl)-1H-benzo[d]imidazole-6-carboxylic acid] |  | 12 | 33.3 | 
COCCn1c(Cc2ccc(-c3cccc(OCc4cnc(Cl)s4)n3)cc2F)nc2ccc(C(=O)O)cc21 [Example 593, 2-(4-(6-((2-chlorothiazol-5-yl)methoxy)pyridin-2-yl)-2-fluorobenzyl)-1-(2-methoxyethyl)-1H-benzo[d]imidazole-6-carboxylic acid] |  | 8.3 | 145 | 
N#Cc1ccc(COc2cccc(-c3cc(F)c(Cc4nc5ccc(C(=O)O)cc5n4Cc4ccon4)c(F)c3)n2)c(F)c1 [Example 594, 2-(4-(6-((4-cyano-2-fluorobenzyl)oxy)pyridin-2-yl)-2,6-difluorobenzyl)-1-(isoxazol-3-ylmethyl)-1H-benzo[d]imidazole-6-carboxylic acid] |  | 4.33 | 0.77 | 
COCCn1c(Cc2ccc(-c3cccc(OCc4cccnc4[N+](=O)[O-])n3)cc2F)nc2ccc(C(=O)O)cc21 [Example 596, 2-(2-fluoro-4-(6-((2-nitropyridin-3-yl)methoxy)pyridin-2-yl)benzyl)-1-(2-methoxyethyl)-1H-benzo[d]imidazole-6-carboxylic acid] |  | 19.5 | 816 | 
N#CCC1(Cn2c(Cc3ccc(-c4ccc(F)c(OCc5ccc(C#N)cc5F)n4)cc3F)nc3c(F)cc(C(N)=O)cc32)CC1 [Example 597, 2-(4-(6-((4-cyano-2-fluorobenzyl)oxy)-5-fluoropyridin-2-yl)-2-fluorobenzyl)-1-((1-(cyanomethyl)cyclopropyl)methyl)-4-fluoro-1H-benzo[d]imidazole-6-carboxamide] |  | 9.83 | 13.8 | 
COc1cc(C#N)ccc1COc1cccc(-c2cc(F)c(Cc3nc4ccc(C(N)=O)cc4n3CC3(CC#N)CC3)cc2F)n1 [Example 598, 2-(4-(6-((4-cyano-2-methoxybenzyl)oxy)pyridin-2-yl)-2,5-difluorobenzyl)-1-((1-(cyanomethyl)cyclopropyl)methyl)-1H-benzo[d]imidazole-6-carboxamide] |  | 19.2 | 0.28 | 
N#CCC1(Cn2c(Cc3cc(F)c(-c4ccnc(OCc5ccc(C#N)cc5F)n4)cc3F)nc3ccc(C(N)=O)nc32)CC1 [Example 599, 2-(4-(2-((4-cyano-2-fluorobenzyl)oxy)pyrimidin-4-yl)-2,5-difluorobenzyl)-3-((1-(cyanomethyl)cyclopropyl)methyl)-3H-imidazo[4,5-b]pyridine-5-carboxamide] |  | 12.3 | 0.98 | 
N#CCC1(Cn2c(Cc3ccc(-c4cccc(OCc5ccc(C#N)cc5F)n4)cc3F)nc3ccc(C(=O)O)nc32)CC1 [Example 600, 2-(4-(6-((4-cyano-2-fluorobenzyl)oxy)pyridin-2-yl)-2-fluorobenzyl)-3-((1-(cyanomethyl)cyclopropyl)methyl)-3H-imidazo[4,5-b]pyridine-5-carboxylic acid] |  | 6.7 | 0.1 | 
N#Cc1ccc(COc2cccc(-c3ccc(Cc4nc5ccc(C(=O)O)cc5n4Cc4ncco4)nc3)n2)c(F)c1 [Example 601, 2-((6-((4-cyano-2-fluorobenzyl)oxy)-[2,3′-bipyridin]-6′-yl)methyl)-1-(oxazol-2-ylmethyl)-1H-benzo[d]imidazole-6-carboxylic acid] |  | 3.83 | 31.7 | 
COCCn1c(Cc2cc(F)c(-c3cccc(OCc4ccc(Cl)cc4)n3)cc2F)nc2ccc(C(=O)O)cc21 [Example 602, 2-(4-(6-((4-chlorobenzyl)oxy)pyridin-2-yl)-2,5-difluorobenzyl)-1-(2-methoxyethyl)-1H-benzo[d]imidazole-6-carboxylic acid] |  | 2.83 | 1.17 | 
COCCn1c(Cc2cc(F)c(-c3cccc(OCc4ccc(C#N)c(F)c4)n3)cc2F)nc2ccc(C(=O)O)cc21 [Example 603, 2-(4-(6-((4-cyano-3-fluorobenzyl)oxy)pyridin-2-yl)-2,5-difluorobenzyl)-1-(2-methoxyethyl)-1H-benzo[d]imidazole-6-carboxylic acid] |  | 2.83 |  | 4.13
COCCn1c(Cc2cc(F)c(-c3cccc(OCc4ccc(C#N)cc4)n3)cc2F)nc2ccc(C(=O)O)cc21 [Example 604, 2-(4-(6-((4-cyanobenzyl)oxy)pyridin-2-yl)-2,5-difluorobenzyl)-1-(2-methoxyethyl)-1H-benzo[d]imidazole-6-carboxylic acid] |  | 4.5 | 0.92 | 
N#Cc1ccc(COc2cccc(-c3cc(F)c(Cc4nc5ccc(C(=O)O)cc5n4Cc4ncco4)cc3F)n2)c(F)c1 [Example 605, 2-(4-(6-((4-cyano-2-fluorobenzyl)oxy)pyridin-2-yl)-2,5-difluorobenzyl)-1-(oxazol-2-ylmethyl)-1H-benzo[d]imidazole-6-carboxylic acid] |  | 5 | 1.57 | 
Cc1cc(Cn2c(Cc3ccc(-c4cccc(OCc5ccc(C#N)cc5F)n4)cc3F)nc3ccc(C(=O)O)cc32)no1 [Example 606] |  | 1.83 | 178 | 
Cn1ccnc1Cn1c(Cc2ccc(-c3cccc(OCc4ccc(C#N)cc4F)n3)cc2F)nc2ccc(C(=O)O)cc21 [Example 607] |  | 3 | 108 | 
O=C(O)c1ccc2nc(Cc3cc(F)c(-c4cccc(OCc5ccc(C(F)F)cc5F)n4)cc3F)n(Cc3ncco3)c2c1 [Example 608] |  | 1.83 | 0.74 | 
O=C(O)c1ccc2nc(Cc3cc(F)c(-c4cccc(OCc5ccc(C(F)F)cc5F)n4)cc3F)n(Cc3ccon3)c2c1 [Example 609] |  | 1.83 | 0.15 | 
N#Cc1ccc(COc2cccc(-c3cc(F)c(Cc4nc5ccc(C(=O)O)cc5n4[C@H]4COC[C@H]4F)cc3F)n2)c(F)c1 [Example 611] |  | 4.83 | 0.29 | 
N#Cc1ccc(COc2cccc(-c3cc(F)c(Cc4nc5ccc(C(=O)O)cc5n4C4COCC4(F)F)cc3F)n2)c(F)c1 (centres unmarked) [Example 612] |  | 3.83 | 0.22 | 
N#Cc1ccc(COc2cccc(-c3cc(F)c(Cc4nc5ccc(C(=O)O)cc5n4[C@H]4COC[C@H]4O)cc3F)n2)c(F)c1 [Example 613] |  | 6.5 | 0.54 | 
N#Cc1ccc(COc2cccc(-c3cc(F)c(Cc4nc5ccc(C(=O)O)cc5n4[C@@H]4COC[C@@H]4O)cc3F)n2)c(F)c1 [Example 614] |  | 1.83 | 0.79 | 
